Test results as given in PubChem BioAssay AID1963850 (Molecular Pharmacology Branch, DTP, NCI, 2024).

Test system: 192522-019-R-J2-PDC complex tumor spheroid viability
Assay: Anticancer human tumor 192522-019-R-J2-PDC patient-derived colon adenocarcinoma cell line growth inhibition [POLQ]
Details: for IC50: curve of first compound; for viability, T/C: stronger effect = lower value
Summary of the method: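 Growth inhibition in 3D: complex spheroids (tumor PDC, HUVEC, MSC) treated with POLQ inhibitor combinations; where Cmax unknown, highest tested concentration 10 microM, except SN-38 at 1 microM.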

[1] = second compound 0.0316 µM, first compound 0.0316 µM
[2] = second compound 0.0316 µM, first compound 0.1 µM
[3] = second compound 0.0316 µM, first compound 0.316 µM
[4] = second compound 0.0316 µM, first compound 1 µM
[5] = second compound 0.0316 µM, first compound 3.16 µM
[6] = second compound 0.0316 µM, first compound 10 µM
[7] = second compound 0.1 µM, first compound 0.0316 µM
[8] = second compound 0.1 µM, first compound 0.1 µM
[9] = second compound 0.1 µM, first compound 0.316 µM
[10] = second compound 0.1 µM, first compound 1 µM
[11] = second compound 0.1 µM, first compound 3.16 µM
[12] = second compound 0.1 µM, first compound 10 µM
[13] = second compound 0.316 µM, first compound 0.0316 µM
[14] = second compound 0.316 µM, first compound 0.1 µM
[15] = second compound 0.316 µM, first compound 0.316 µM
[16] = second compound 0.316 µM, first compound 1 µM
[17] = second compound 0.316 µM, first compound 3.16 µM
[18] = second compound 0.316 µM, first compound 10 µM
[19] = second compound 1 µM, first compound 0.0316 µM
[20] = second compound 1 µM, first compound 0.1 µM
[21] = second compound 1 µM, first compound 0.316 µM
[22] = second compound 1 µM, first compound 1 µM
[23] = second compound 1 µM, first compound 3.16 µM
[24] = second compound 1 µM, first compound 10 µM
[25] = second compound 3.16 µM, first compound 0.0316 µM
[26] = second compound 3.16 µM, first compound 0.1 µM
[27] = second compound 3.16 µM, first compound 0.316 µM
[28] = second compound 3.16 µM, first compound 1 µM
[29] = second compound 3.16 µM, first compound 3.16 µM
[30] = second compound 3.16 µM, first compound 10 µM
[31] = second compound 10 µM, first compound 0.0316 µM
[32] = second compound 10 µM, first compound 0.1 µM
[33] = second compound 10 µM, first compound 0.316 µM
[34] = second compound 10 µM, first compound 1 µM
[35] = second compound 10 µM, first compound 3.16 µM
[36] = second compound 10 µM, first compound 10 µM
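Note: spheroids exposed to drugs for seven days before reading.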
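Throughout, for viability, T/C: 100% = DMSO vehicle control viability in luminescence.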

In the case of `C=CC(=O)N1CCN(c2nc(=O)n(-c3c(C)ccnc3C(C)C)c3nc(-c4c(O)cccc4F)c(F)cc23)C(C)C1` (centres undefined) + Nc1ccc(C#CCN(C(=O)Cc2ncc(C(F)(F)F)cc2C(F)(F)F)c2ccc(F)cc2)nn1, the IC50 (second compound 0.0316 µM) is reported as > 10 µM, the IC50 (second compound 0.1 µM) is reported as > 10 µM and the IC50 (second compound 0.316 µM) is reported as > 10 µM. The IC50 (second compound 1 µM) was > 10 µM, the IC50 (second compound 3.16 µM) was > 10 µM and the IC50 (second compound 10 µM) was > 10 µM. For the same molecule, the viability, T/C [1] was 104%, the viability, T/C [2] was 99.7% and the viability, T/C [3] was 96.7%. The viability, T/C [4] was 111%, the viability, T/C [5] was 116% and the viability, T/C [6] was 97%. It also gave a viability, T/C [7] of 105%, a viability, T/C [8] of 97.2% and a viability, T/C [9] of 110%. The viability, T/C [10] was 112%, the viability, T/C [11] was 102% and the viability, T/C [12] was 98.3%. For the same molecule, the viability, T/C [13] was 108%, the viability, T/C [14] was 104% and the viability, T/C [15] was 103%. The viability, T/C [16] was 105%, the viability, T/C [17] was 116% and the viability, T/C [18] was 100%. It also gave a viability, T/C [19] of 109%, a viability, T/C [20] of 102% and a viability, T/C [21] of 103%. The viability, T/C [22] was 108%, the viability, T/C [23] was 119% and the viability, T/C [24] was 99.3%. For the same molecule, the viability, T/C [25] was 102%, the viability, T/C [26] was 98.8% and the viability, T/C [27] was 103%. For the same molecule, the viability, T/C [28] was 108%, the viability, T/C [29] was 115% and the viability, T/C [30] was 106%. It also gave a viability, T/C [31] of 104%, a viability, T/C [32] of 111% and a viability, T/C [33] of 102%. It also gave a viability, T/C [34] of 108%, a viability, T/C [35] of 107% and a viability, T/C [36] of 104%.
`CC(C)n1c(=O)n(C)c2cnc3cc(F)c(-c4ccc(OCCCN5CCCCC5)nc4)cc3c21` + Nc1ccc(C#CCN(C(=O)Cc2ncc(C(F)(F)F)cc2C(F)(F)F)c2ccc(F)cc2)nn1 was tested, and the IC50 (second compound 0.0316 µM) was > 10 µM, the IC50 (second compound 0.1 µM) was > 10 µM and the IC50 (second compound 0.316 µM) was > 10 µM. The IC50 (second compound 1 µM) was > 10 µM, the IC50 (second compound 3.16 µM) was > 10 µM and the IC50 (second compound 10 µM) was > 10 µM. The viability, T/C [1] was 104%, the viability, T/C [2] was 97.6% and the viability, T/C [3] was 110%. It also gave a viability, T/C [4] of 118%, a viability, T/C [5] of 124% and a viability, T/C [6] of 101%. The viability, T/C [7] was 100%, the viability, T/C [8] was 112% and the viability, T/C [9] was 119%. The viability, T/C [10] was 134%, the viability, T/C [11] was 122% and the viability, T/C [12] was 94%. The viability, T/C [13] was 113%, the viability, T/C [14] was 105% and the viability, T/C [15] was 110%. The viability, T/C [16] was 118%, the viability, T/C [17] was 123% and the viability, T/C [18] was 111%. The viability, T/C [19] was 104%, the viability, T/C [20] was 118% and the viability, T/C [21] was 122%. The viability, T/C [22] was 138%, the viability, T/C [23] was 137% and the viability, T/C [24] was 111%. For the same molecule, the viability, T/C [25] was 116%, the viability, T/C [26] was 104% and the viability, T/C [27] was 116%. For the same molecule, the viability, T/C [28] was 127%, the viability, T/C [29] was 120% and the viability, T/C [30] was 112%. The viability, T/C [31] was 105%, the viability, T/C [32] was 104% and the viability, T/C [33] was 117%. It also gave a viability, T/C [34] of 127%, a viability, T/C [35] of 127% and a viability, T/C [36] of 114%.
